The Deep4Chem optical property database
Values belong to the compound of their own block, whether it stands above or below them.

Test: solvent given as SMILES

SMILES: OC1(c2ccc(-c3cccs3)s2)CCC1
absorption maximum (in C1CCOC1): 311 nm
absorption maximum (in CC#N): 309 nm
absorption maximum (in CCCCCC): 308 nm
absorption maximum (in CCO): 310 nm
absorption maximum (in OCCOCCO): 314 nm
absorption maximum (in c1ccncc1): 316 nm

SMILES: N#CC(C#N)=C(c1ccc(-n2ccc3ccccc32)cc1)c1ccc(-n2ccc3ccccc32)cc1
absorption maximum (in Cc1ccccc1): 400 nm

absorption maximum (in ClCCl): 431 nm
SMILES: F[B-]1(F)OC(C#Cc2ccccc2)=C2CCc3ccccc3C2=[O+]1

absorption maximum (in ClC(Cl)Cl): 397 nm
SMILES: N=c1oc2cccc3c4c(-c5ccccc5)oc5cccc(c(c1-c1ccccc1)c23)c54

absorption maximum (in CS(C)=O): 361 nm
SMILES: COc1ccc(C2C3=C(CCCC3=O)Nc3c2c(=O)oc2ccccc32)cc1 (centres undefined)

absorption maximum (in ClCCl): 477 nm
SMILES: CCCCN1C(=O)C2=C(c3ccc(Br)cc3)NC(=O)C2=C1c1ccc(Br)cc1

absorption maximum (in ClC(Cl)Cl): 404 nm
SMILES: C=C[Si](c1c2ccccc2cc2ccccc12)(c1c2ccccc2cc2ccccc12)c1c2ccccc2cc2ccccc12

absorption maximum (in ClCCl): 435 nm
SMILES: CCCCN(CCCC)c1ccc(C#Cc2cc(C#Cc3ccc(N(CCCC)CCCC)cc3)c(C#Cc3ccc(C#N)cc3)cc2C#Cc2ccc(C#N)cc2)cc1

SMILES: O=Cc1ccc(-c2ccc(C3=CCC(c4ccccc4)CC3)s2)s1 (centres undefined)
absorption maximum (in C1CCOC1): 385 nm
absorption maximum (in CC#N): 385 nm
absorption maximum (in CCCCCC): 380 nm
absorption maximum (in CCO): 389 nm
absorption maximum (in OCCOCCO): 389 nm
absorption maximum (in c1ccncc1): 393 nm

absorption maximum (in CC#N): 524 nm
absorption maximum (in CCO): 527 nm
absorption maximum (in CN(C)C=O): 534 nm
absorption maximum (in CO): 530 nm
absorption maximum (in O): 525 nm
SMILES: CCNc1cc2oc3c/c(=[NH+]\CC)c(C)cc-3c(-c3ccccc3C(=O)OCC)c2cc1C

SMILES: S=P1(c2ccccc2)C(c2ccccc2)=Cc2cc3ccccc3cc21 (centres undefined)
absorption maximum (in ClCCl): 387 nm

absorption maximum (in ClCCl): 370 nm
SMILES: COc1ccc(/C=C/c2cc(/C=C/c3ccc(OC)cc3)nc(/C=C/c3ccc(C(F)(F)F)cc3)n2)cc1

absorption maximum (in CC#N): 559 nm
SMILES: CC1=C2C3=C(CCc4ccccc43)C(C)=[N+]2[B-](F)(F)n2c(C)c3c(c21)-c1ccccc1CC3

absorption maximum (in ClCCl): 371 nm
SMILES: CC(=O)c1c(N[C@H](C(=O)O)C(C)C)c2ccc(N(C)C)cc2oc1=O

SMILES: CC1(C)c2ccccc2-c2cc3c(cc21)N(c1ccc(-c2nc(-c4ccc(N5c6ccccc6C(c6ccccc6)(c6ccccc6)c6cc7c(cc65)C(C)(C)c5ccccc5-7)cc4)nc(-c4ccc(N5c6ccccc6C(c6ccccc6)(c6ccccc6)c6cc7c(cc65)C(C)(C)c5ccccc5-7)cc4)n2)cc1)c1ccccc1C3(c1ccccc1)c1ccccc1
absorption maximum (in Cc1ccccc1): 321 nm

absorption maximum (in ClC(Cl)Cl): 629 nm
SMILES: Cc1cc(C)c(C2=C3C=CC=[N+]3[B-]3(F)Oc4cc(O)cc5c6ccc(C)cc6c6cc2n3c6c45)c(C)c1 (centres undefined)

absorption maximum (in CO): 467 nm
absorption maximum (in O): 468 nm
absorption maximum (in OCCO): 476 nm
absorption maximum (in [2H]O[2H]): 468 nm
SMILES: O=C(O)C1=CC(=C/C=[N+]2/c3cc(O)c(C[C@@H]4O[C@H](CO)[C@@H](O)C(O)[C@H]4O)cc3C[C@H]2C(=O)O)C=C(C(=O)O)N1 (some centres undefined)

absorption maximum (in ClCCl): 350 nm
SMILES: CC(=O)c1ccc(-c2cc3c(ccc4sccc43)s2)cc1

absorption maximum (in ClCCl): 360 nm
SMILES: CC(C)c1cccc(C(C)C)c1N1C(=O)c2cccc3c(Oc4ccc(Cl)cc4)ccc(c23)C1=O

absorption maximum (in CO): 315 nm
SMILES: Cc1ccc(-c2nc(-c3cccc(C#N)c3)[nH]c2-c2ccc(C)cc2)cc1

absorption maximum (in ClCCl): 520 nm
SMILES: Clc1nnc(O/N=C/c2ccc(N(c3ccc(Br)cc3)c3ccc(Br)cc3)cc2)nn1

SMILES: Cc1ccc(N(c2ccc(C)cc2)c2ccc(-c3cc4c(cc(-c5ccc(N(c6ccc(C)cc6)c6ccc(C)cc6)cc5)c5nsnc54)c4nsnc34)cc2)cc1
absorption maximum (in Cc1ccccc1): 520 nm
absorption maximum (in ClCCl): 518 nm

SMILES: c1ccc2c(c1)CC1(C2)c2cc(N3c4ccccc4Sc4ccccc43)ccc2-c2ccc(N3c4ccccc4Sc4ccccc43)cc21
absorption maximum (in Cc1ccccc1): 310 nm

SMILES: COc1nc(Nc2ccc3c4c(cccc24)C(=O)c2ccccc2-3)nc(OC)n1
absorption maximum (in CC#N): 413.91 nm
absorption maximum (in CC(C)O): 421.94 nm
absorption maximum (in CCCCOCCCC): 421.94 nm
absorption maximum (in CCOC(C)=O): 418.94 nm
absorption maximum (in CO): 419.99 nm
absorption maximum (in Cc1ccccc1): 426.99 nm

absorption maximum (in C1CCOC1): 366 nm
SMILES: N#Cc1ccc(/C=C/c2ccc(C=C(c3ccccc3)c3ccccc3)cc2)cc1

absorption maximum (in ClCCl): 711 nm
SMILES: c1ccc(C2=C3c4ccccc4C4=[N+]3[B-]3(Oc5ccccc54)Oc4ccccc4-c4c5ccccc5c2n43)cc1 (centres undefined)

SMILES: CCC1=C(C)C2=C(C)c3c(C)c(-c4csc(N5CCOCC5)n4)c(C)n3[B-](F)(F)[N+]2=C1C
absorption maximum (in C1CCOC1): 524 nm
absorption maximum (in C1COCCO1): 524 nm
absorption maximum (in CC#N): 516 nm
absorption maximum (in CC(C)O): 518 nm
absorption maximum (in CCO): 516 nm
absorption maximum (in CCOC(C)=O): 520 nm
absorption maximum (in CN(C)C=O): 524 nm
absorption maximum (in CO): 514 nm
absorption maximum (in CS(C)=O): 521 nm
absorption maximum (in Cc1ccccc1): 527 nm
absorption maximum (in ClC(Cl)Cl): 523 nm
absorption maximum (in ClCCl): 522 nm

absorption maximum (in ClCCl): 408 nm
SMILES: c1ccc(C2(c3ccccc3)c3ccc4ccc5ccccc5c4c3-c3c2ccc2ccc4ccccc4c32)cc1

absorption maximum (in CCCCCCCCCCCCCC): 380 nm
SMILES: CCCCCCCCCCc1cc(-c2cc(CCCCCCCCCC)c(-c3cccs3)s2)sc1-c1cccs1

absorption maximum (in CS(C)=O): 364 nm
SMILES: CCOC(=O)C1=C(N)n2c(=O)c3ccccc3c(=O)n2C1c1ccccc1 (centres undefined)

SMILES: Oc1ccc2ncccc2c1
absorption maximum (in CC#N): 331 nm
absorption maximum (in CCCC#N): 333 nm
absorption maximum (in CO): 331 nm
absorption maximum (in Cc1ccccc1): 332 nm
absorption maximum (in ClCCl): 330 nm

absorption maximum (in ClC(Cl)Cl): 410 nm
SMILES: O=C1CC(c2ccccc2)c2c(c3ccccc3c3nc4ccccc4nc23)O1 (centres undefined)

absorption maximum (in ClC(Cl)Cl): 437 nm
SMILES: Cc1ccc(C2=Cc3c4ccccc4c4ccccc4[n+]3[B-](F)(F)O2)cc1

absorption maximum (in CC#N): 360 nm
SMILES: COc1ccc(-c2csc(/C(C#N)=C/c3c(Cl)cccc3Cl)n2)cc1

absorption maximum (in C1CCCCC1): 318 nm
absorption maximum (in CC#N): 308 nm
absorption maximum (in CCO): 309 nm
absorption maximum (in CCOC(C)=O): 317 nm
SMILES: COC(=O)c1nc(-c2cccc3ccccc23)oc1C

absorption maximum (in CC#N): 400 nm
SMILES: Cc1cc2c(ccc3c[n+](C)c(C)cc32)c[n+]1C

absorption maximum (in CCOC(C)=O): 296 nm
SMILES: CCn1c(-c2ccc(N(c3ccccc3)c3cccc4ccccc34)cc2)c(-c2ccc3ccccc3c2)c(-c2ccc3ccccc3c2)c1-c1ccc(N(c2ccccc2)c2cccc3ccccc23)cc1

absorption maximum (in ClCCl): 398 nm
SMILES: F[B-]1(F)OC(/C=C/c2ccccc2)=CC(c2ccccc2)=[O+]1

absorption maximum (in CN(C)C=O): 525 nm
SMILES: O=C1c2ccc3c4ccc5c6c(ccc(c7ccc(c2c37)C(=O)N1c1ccc(Cl)cc1)c64)C(=O)N(c1ccc(Cl)cc1)C5=O

SMILES: Cc1ccc(-n2c3ccccc3c3cc(C(=C(C#N)C#N)c4ccccc4)ccc32)cc1
absorption maximum (in C1CCOC1): 442 nm
absorption maximum (in CC#N): 445 nm
absorption maximum (in CC(C)=O): 442 nm
absorption maximum (in CCOC(C)=O): 442 nm
absorption maximum (in CO): 447 nm
absorption maximum (in CS(C)=O): 453 nm
absorption maximum (in Cc1ccccc1): 447 nm
absorption maximum (in ClC(Cl)Cl): 458 nm

absorption maximum (in ClC(Cl)Cl): 524 nm
SMILES: C[Si](C)(C)C#Cc1c2c(=O)c3ccccc3c2c(C#C[Si](C)(C)C)c2c(=O)c3ccccc3c12

absorption maximum (in CCO): 573 nm
absorption maximum (in O): 574 nm
SMILES: O=C([O-])c1ccc(C2=c3cc4c5c(c3Oc3c2cc2c6c3CCCN6CCC2)CCC[N+]=5CCC4)c(C(=O)[O-])c1

absorption maximum (in C1COCCO1): 444 nm
absorption maximum (in CC#N): 442 nm
absorption maximum (in CCCCOCCCC): 443 nm
absorption maximum (in CCOC(C)=O): 442 nm
SMILES: Clc1nc(Nc2ccccc2)nc(Nc2ccc3c4cccc5cccc(c6cccc2c63)c54)n1

SMILES: CCCCCCCCn1c2cc(/C=C/c3ccc(N(c4ccccc4)c4ccccc4)cc3)ccc2c2cc3c(cc21)c1ccc(/C=C/c2ccc(N(c4ccccc4)c4ccccc4)cc2)cc1n3CCCCCCCC
absorption maximum (in Cc1ccccc1): 416 nm

absorption maximum (in ClCCl): 340 nm
SMILES: CC(C)(C)c1ccc2c(c1)c1cc(C(C)(C)C)ccc1n2-c1cccs1

absorption maximum (in ClC(Cl)Cl): 425 nm
SMILES: c1cc2ccc3[nH]c4ccc5cccc6c(c1)c2c3c4c56

SMILES: CCC1=C(C)C2=Cc3cc(I)c(I)n3[B-](F)(F)[N+]2=C1C
absorption maximum (in C1CCCCC1): 542 nm
absorption maximum (in CC(C)=O): 524.5 nm
absorption maximum (in CCO): 529 nm
absorption maximum (in CCOC(C)=O): 528 nm
absorption maximum (in CO): 526.5 nm
absorption maximum (in OCC(F)(F)F): 520 nm

absorption maximum (in ClCCl): 425 nm
SMILES: O=[N+]([O-])c1ccc(-c2nc(/C=C/c3ccc(Cl)cc3)c(/C=C/c3ccc(Cl)cc3)[nH]2)cc1

absorption maximum (in CO): 392 nm
SMILES: Cc1cc(C)c(B(c2cc(-c3ccccc3)sc2-c2sc(-c3ccccc3)cc2P(=O)(c2ccccc2)c2ccccc2)c2c(C)cc(C)cc2C)c(C)c1

absorption maximum (in CO): 800 nm
SMILES: CS1(C)C(/C=C/C2=C(c3ccc(C(=O)O)cc3)C(=C/C=C3/N(CCCCS(=O)(=O)[O-])c4ccccc4S3(C)C)/CCC2)=[N+](CCCCS(=O)(=O)[O-])c2ccccc21

SMILES: CC1(C)c2ccccc2N(c2cccc(S(=O)(=O)c3cccc(N4c5ccccc5C(C)(C)c5ccccc54)c3)c2)c2ccccc21
absorption maximum (in C1CCOC1): 281 nm
absorption maximum (in Cc1ccccc1): 301 nm
absorption maximum (in ClC(Cl)Cl): 287 nm

absorption maximum (in ClCCl): 333 nm
SMILES: CCCCC(CC)COc1cc(OCC(CC)CCCC)c2c#cc3ccc4sc5ccc(c#cc6cc(c#cc7ccc8sc9ccc(c#cc1c2)cc9c8c7)c(C(CCCC)OCCC)cc6C(CCCC)OCCC)cc5c4c3 (centres undefined)

absorption maximum (in ClCCl): 351 nm
SMILES: CC(C)(C)C1CCC(=CS/C=C/c2ccc(/C=C/SC=C3CCC(C(C)(C)C)CC3)cc2)CC1 (centres undefined)

SMILES: CCCCCCCCN1c2ccc(C#Cc3ccc(OC)cc3)cc2Sc2cc(C=O)ccc21
absorption maximum (in C1CCOC1): 378 nm
absorption maximum (in CC#N): 380.01 nm
absorption maximum (in CCCCCC): 374 nm
absorption maximum (in CO): 351.11 nm
absorption maximum (in CS(C)=O): 383.45 nm
absorption maximum (in Cc1ccccc1): 383 nm
absorption maximum (in ClC(Cl)Cl): 382.5 nm
